Results from patent publication US12421249B2, “Inhibitors of APOL1 and methods of using same” (Vertex Pharmaceuticals Incorporated, priority 2020, dated 2025).

Key:
APOL1 G1 = molecular target: T1, APOL1 G1 (Homo sapiens, UniProt O14791, I384M/S342G); assay: Trypanosoma brucei brucei Lysis Assay Using APOL1 Recombinant Protein (AlamarBlue viability readout); format: cell-based; conditions: Trypanosome Assay; for IC50: IP50 = IC50 for cell proliferation, read-out: Trypanosome Assay IP50; for Emax: read-out: Trypanosome Assay Max Activity (%)
T1 sequence (O14791 28-398 S342G/I384M): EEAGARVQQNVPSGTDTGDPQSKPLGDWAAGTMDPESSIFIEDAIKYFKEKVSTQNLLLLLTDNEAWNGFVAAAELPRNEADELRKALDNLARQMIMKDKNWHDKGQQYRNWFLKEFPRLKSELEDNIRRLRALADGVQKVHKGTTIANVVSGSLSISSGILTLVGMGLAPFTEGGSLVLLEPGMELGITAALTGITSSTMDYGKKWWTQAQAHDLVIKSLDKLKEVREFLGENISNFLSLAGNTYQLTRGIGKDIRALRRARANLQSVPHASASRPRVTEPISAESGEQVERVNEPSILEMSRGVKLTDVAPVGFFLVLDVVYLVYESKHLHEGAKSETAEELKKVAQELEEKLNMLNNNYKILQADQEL
How it was run: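 Percent viability comes from AlamarBlue (resazurin→resorufin) fluorescence interpolated on a standard curve of known parasite numbers, with no-APOL1 wells as 100%. Parasites (Lister 427 bloodstream form, 120,000/well, serum-free assay medium) meet 0.05 μg/mL APOL1 (~EC90). Compounds span a 10-point series, 0.1% DMSO final.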

APOL1 = molecular target: T2, APOL1 (Homo sapiens, UniProt O14791); assay: Multi-Tox Assay (MultiTox-Fluor Multiplex Cytotoxicity Assay in tet-inducible APOL1 T-REx-HEK293 cells; Table 46 does not say which APOL1 variant G0/G1/G2); format: cell-based; conditions: APOL1 variant not given; for IC50: IP50 = IC50 for cell proliferation
T2 sequence (O14791 1-398 S342G/I384M): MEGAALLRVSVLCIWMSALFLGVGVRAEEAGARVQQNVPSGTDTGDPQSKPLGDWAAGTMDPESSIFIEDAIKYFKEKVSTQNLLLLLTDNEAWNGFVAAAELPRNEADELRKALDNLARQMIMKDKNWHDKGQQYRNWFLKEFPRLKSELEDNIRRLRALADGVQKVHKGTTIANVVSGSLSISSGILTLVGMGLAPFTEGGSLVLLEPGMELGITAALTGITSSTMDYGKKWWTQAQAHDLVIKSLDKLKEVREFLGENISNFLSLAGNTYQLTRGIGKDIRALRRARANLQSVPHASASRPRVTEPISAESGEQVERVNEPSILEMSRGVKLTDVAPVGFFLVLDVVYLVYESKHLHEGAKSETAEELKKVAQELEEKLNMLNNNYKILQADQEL

Row | Structure (SMILES) | IC50 (APOL1 G1) [nM] | Emax (APOL1 G1) [%] | IC50 (APOL1) [nM] | IC90 (APOL1) [nM] | Multi-Tox Assay Max Activity (%) (APOL1)
1 | C[C@H]1C[C@@]2(C[C@@H](c3cn(C)nn3)N1)OC[C@H](O)c1cc(C(F)(F)F)sc12 [Compound 180] | < 50 | 102 | < 50 | – | –
2 | C[C@H]1C[C@@]2(C[C@@H](c3cn(C)nn3)N1)OC[C@@H](O)c1cc(C(F)(F)F)sc12 [Compound 181, (2S,4S,4′S,6S)-2-methyl-6-(1-methyl-1H-1,2,3-triazol-4-yl)-2′-(trifluoromethyl)-4′,5′-dihydrospiro[piperidine-4,7′-thieno[2,3-c]pyran]-4′-ol] | < 50 | 102 | < 50 | – | –
3 | C[C@H]1C[C@@]2(C[C@@H](c3cn(C)nn3)N1)OC[C@@H](O)c1sc(Cl)cc12 [Compound 182] | < 50 | 113 | < 50 | – | –
4 | C[C@H]1C[C@@]2(C[C@@H](c3cn(C)nn3)N1)OCC(F)(F)c1cc(Cl)sc12 [Compound 183, (2′S,6′S,7S)-2-chloro-4,4-difluoro-2′-methyl-6′-(1-methyltriazol-4-yl)spiro[5H-thieno[2,3-c]pyran-7,4′-piperidine]] | 50 to 500 | 106 | < 50 | – | –
5 | CCC1CC2(CC(c3cn(C)nn3)N1)OCCc1cc(Cl)sc12 (stereo not drawn) [Compound 186, 2-chloro-2′-ethyl-6′-(1-methyltriazol-4-yl)spiro[4,5-dihydrothieno[2,3-c]pyran-7,4′-piperidine]] | 50 to 500 | 104 | < 50 | 50 to 500 | 99.3
6 | CCC1CC2(CC(c3cn(C)nn3)N1)OCCc1cc(C(F)(F)F)sc12 (stereo not drawn) [Compound 187, 2′-ethyl-6′-(1-methyltriazol-4-yl)-2-(trifluoromethyl)spiro[4,5-dihydrothieno[2,3-c]pyran-7,4′-piperidine]] | 50 to 500 | 106 | < 50 | < 50 | 100.0
7 | CC(C)C1CC2(CC(c3cn(C)nn3)N1)OCCc1cc(Cl)sc12 (stereo not drawn) [Compound 188] | 50 to 500 | 108 | 50 to 500 | 50 to 500 | 99.0
8 | Cn1cc(C2CC3(CC(C4CCC4)N2)OCCc2cc(Cl)sc23)nn1 (stereo not drawn) [Compound 189] | > 500 | 87.5 | 50 to 500 | – | –
9 | COCC1CC2(CC(c3cn(C)nn3)N1)OCCc1cc(Cl)sc12 (stereo not drawn) [Compound 190] | > 500 | 92.5 | 50 to 500 | – | –
10 | CC(C)C1CC2(CC(c3cn(C)nn3)N1)OCCc1cc(C(F)(F)F)sc12 (stereo not drawn) [Compound 191] | 50 to 500 | 108 | 50 to 500 | – | –
11 | Cn1cc(C2CC3(CC(C4CCC4)N2)OCCc2cc(C(F)(F)F)sc23)nn1 (stereo not drawn) [Compound 192] | 50 to 500 | 100 | 50 to 500 | – | –
12 | COCC1CC2(CC(c3cn(C)nn3)N1)OCCc1cc(C(F)(F)F)sc12 (stereo not drawn) [Compound 193] | 50 to 500 | 100 | 50 to 500 | – | –
13 | C[C@H]1CC2(C[C@H](C)N1)OCCc1sc(C(F)(F)F)cc12 (stereo partly drawn) [Compound 195] | > 500 | 50.7 | > 500 | – | –
14 | COC(=O)[C@@H]1C[C@]2(C[C@H](C)N1)OCCc1cc(Cl)sc12 [Compound 209, methyl (2′S,6′S,7S)-2-chloro-6′-methyl-spiro[4,5-dihydrothieno[2,3-c]pyran-7,4′-piperidine]-2′-carboxylate] | 50 to 500 | 100 | > 500 | – | –
15 | C[C@H]1C[C@@]2(C[C@@H](CC3CCOCC3)N1)OCCc1cc(Cl)sc12 [Compound 219, (2S,6R)-2-chloro-2′-methyl-6′-(tetrahydropyran-4-ylmethyl)spiro[4,5-dihydrothieno[2,3-c]pyran-7,4′-piperidine]] | > 500 | 71 | > 500 | – | –
16 | C[C@H]1C[C@@]2(C[C@@H](C3CC3)N1)OCC(O)c1cc(Cl)sc12 (stereo partly drawn) [Compound 220, (2S,6S)-2-chloro-2′-cyclopropyl-6′-methyl-spiro[4,5-dihydrothieno[2,3-c]pyran-7,4′-piperidine]-4-ol] | < 50 | 110 | < 50 | – | –
